These antisense oligonucleotides have a phosphorothioate backbone; sugars and methylation of C are not fully specified.
Each sequence was assayed against PRKAR2A. Conditions: ASO.
Further: test concentration or dose not given here.

**Q.** Which remaining target (mRNA or protein) (fraction of control) does the source give for CAATGACATGCTCATCAGCT here?
**A.** The remaining target (mRNA or protein) (fraction of control) was 0.74.

**Q.** CACACCTACTGCCCGAGGTT was tested. Which remaining target (mRNA or protein) (fraction of control) did it give?
**A.** The remaining target (mRNA or protein) (fraction of control) was 0.38.

**Q.** How did the remaining target (mRNA or protein) (fraction of control) turn out when CAGGAACAGTTCTGTCATGT was run?
**A.** Its remaining target (mRNA or protein) (fraction of control) is 0.65.

**Q.** With CATGCCGGCGGCGGCCGAAG as the sequence, how does the remaining target (mRNA or protein) (fraction of control) read?
**A.** Its remaining target (mRNA or protein) (fraction of control) is ≥ 1.

**Q.** CCATGCAGGGCCCCAGAAGC was tested. Which remaining target (mRNA or protein) (fraction of control) did it give?
**A.** The remaining target (mRNA or protein) (fraction of control) was 0.52.

**Q.** Which remaining target (mRNA or protein) (fraction of control) does the source give for CCCGAGGTTGCCCAGATCCA here?
**A.** Its remaining target (mRNA or protein) (fraction of control) is ≥ 1.

**Q.** With CGCACGGCCCCGGCTCACGT as the sequence, how does the remaining target (mRNA or protein) (fraction of control) read?
**A.** Its remaining target (mRNA or protein) (fraction of control) is 0.68.

**Q.** CGGGATCTGGATGTGGCTCA was tested. Which remaining target (mRNA or protein) (fraction of control) did it give?
**A.** Its remaining target (mRNA or protein) (fraction of control) is 0.81.

**Q.** With CTAGGAACTGGAACTTCCAA as the sequence, how does the remaining target (mRNA or protein) (fraction of control) read?
**A.** The remaining target (mRNA or protein) (fraction of control) was 0.91.

**Q.** For CTCATGCCGGCGGCGGCCGA, which remaining target (mRNA or protein) (fraction of control) is on record?
**A.** The remaining target (mRNA or protein) (fraction of control) was 0.96.

**Q.** Which remaining target (mRNA or protein) (fraction of control) does the source give for CTGACACCTCTAGTGATTTA here?
**A.** Its remaining target (mRNA or protein) (fraction of control) is ≥ 1.

**Q.** For CTGGATGTGGCTCATGCCGG, which remaining target (mRNA or protein) (fraction of control) is on record?
**A.** The remaining target (mRNA or protein) (fraction of control) was 0.52.

**Q.** How did the remaining target (mRNA or protein) (fraction of control) turn out when GAGAGACATGCCGTTTTGAA was run?
**A.** Its remaining target (mRNA or protein) (fraction of control) is 0.51.

**Q.** With GCAGCGGGCAATCTCGACCT as the sequence, how does the remaining target (mRNA or protein) (fraction of control) read?
**A.** The remaining target (mRNA or protein) (fraction of control) was 0.5.

**Q.** For GCATGTTTATACTTTGGACT, which remaining target (mRNA or protein) (fraction of control) is on record?
**A.** The remaining target (mRNA or protein) (fraction of control) was 0.83.

**Q.** How did the remaining target (mRNA or protein) (fraction of control) turn out when GCGCAACCCTACGCTACCAC was run?
**A.** Its remaining target (mRNA or protein) (fraction of control) is 0.53.

**Q.** With GCGGCCACTGTCTCCGCGCT as the sequence, how does the remaining target (mRNA or protein) (fraction of control) read?
**A.** Its remaining target (mRNA or protein) (fraction of control) is 0.67.

**Q.** How did the remaining target (mRNA or protein) (fraction of control) turn out when GCTGTTCCTCATAGTGTGAG was run?
**A.** Its remaining target (mRNA or protein) (fraction of control) is ≥ 1.

**Q.** Which remaining target (mRNA or protein) (fraction of control) does the source give for GGATCTGGATGTGGCTCATG here?
**A.** The remaining target (mRNA or protein) (fraction of control) was 0.71.

**Q.** Which remaining target (mRNA or protein) (fraction of control) does the source give for GGATGTGGCTCATGCCGGCG here?
**A.** Its remaining target (mRNA or protein) (fraction of control) is 0.94.

**Q.** GGCTCATGCCGGCGGCGGCC was tested. Which remaining target (mRNA or protein) (fraction of control) did it give?
**A.** The remaining target (mRNA or protein) (fraction of control) was 0.62.

**Q.** Which remaining target (mRNA or protein) (fraction of control) does the source give for GGGTGTTGTACATCAGAGCT here?
**A.** Its remaining target (mRNA or protein) (fraction of control) is 0.87.

**Q.** With GTGGCTCATGCCGGCGGCGG as the sequence, how does the remaining target (mRNA or protein) (fraction of control) read?
**A.** The remaining target (mRNA or protein) (fraction of control) was ≥ 1.

**Q.** With TAATGAATGGGCCTTCAGAA as the sequence, how does the remaining target (mRNA or protein) (fraction of control) read?
**A.** The remaining target (mRNA or protein) (fraction of control) was ≥ 1.

**Q.** TACTAAAATGTCATAAGTTC was tested. Which remaining target (mRNA or protein) (fraction of control) did it give?
**A.** Its remaining target (mRNA or protein) (fraction of control) is ≥ 1.

**Q.** With TGAGTGATTATGCGTTCTCC as the sequence, how does the remaining target (mRNA or protein) (fraction of control) read?
**A.** Its remaining target (mRNA or protein) (fraction of control) is 0.8.

**Q.** Which remaining target (mRNA or protein) (fraction of control) does the source give for TGCAGCAGCTCCGTGAGCCC here?
**A.** The remaining target (mRNA or protein) (fraction of control) was 0.57.

**Q.** Which remaining target (mRNA or protein) (fraction of control) does the source give for TGCCGGCGGCGGCCGAAGGG here?
**A.** Its remaining target (mRNA or protein) (fraction of control) is ≥ 1.

**Q.** How did the remaining target (mRNA or protein) (fraction of control) turn out when TGTGGCTGACCAGAAGGTTT was run?
**A.** Its remaining target (mRNA or protein) (fraction of control) is 0.53.

**Q.** TTCTAAAAGTCACCCGGTCC was tested. Which remaining target (mRNA or protein) (fraction of control) did it give?
**A.** The remaining target (mRNA or protein) (fraction of control) was 0.39.

**Q.** Which remaining target (mRNA or protein) (fraction of control) does the source give for TTGAACCTCTGCCCATCCTT here?
**A.** Its remaining target (mRNA or protein) (fraction of control) is 0.39.

**Q.** For TTTAGTCCTGCTTCTAATCA, which remaining target (mRNA or protein) (fraction of control) is on record?
**A.** Its remaining target (mRNA or protein) (fraction of control) is 0.73.

**Q.** Which remaining target (mRNA or protein) (fraction of control) does the source give for TTTGTTGGTGACCAGGGCAA here?
**A.** The remaining target (mRNA or protein) (fraction of control) was 0.6.

These sequences were tested against RHOG. Conditions: ASO.

**Q.** Which remaining target (mRNA or protein) (fraction of control) does the source give for AAAAGGCATTCAGGGAAC here?
**A.** The remaining target (mRNA or protein) (fraction of control) was ≥ 1.

**Q.** With AAAGCGTTAGTTGTGTAG as the sequence, how does the remaining target (mRNA or protein) (fraction of control) read?
**A.** The remaining target (mRNA or protein) (fraction of control) was ≥ 1.

**Q.** For AACTGTGTGGAAAGCTGG, which remaining target (mRNA or protein) (fraction of control) is on record?
**A.** Its remaining target (mRNA or protein) (fraction of control) is 0.92.

**Q.** With AAGAGGATGCAGGACCGC as the sequence, how does the remaining target (mRNA or protein) (fraction of control) read?
**A.** Its remaining target (mRNA or protein) (fraction of control) is 0.82.

**Q.** ACACCATCCTGTTGCAGG was tested. Which remaining target (mRNA or protein) (fraction of control) did it give?
**A.** The remaining target (mRNA or protein) (fraction of control) was 0.77.

**Q.** With ACAGCCTCGGCGAACACT as the sequence, how does the remaining target (mRNA or protein) (fraction of control) read?
**A.** The remaining target (mRNA or protein) (fraction of control) was 0.94.

**Q.** For ACATTCACCTTCTCAGGA, which remaining target (mRNA or protein) (fraction of control) is on record?
**A.** The remaining target (mRNA or protein) (fraction of control) was 0.8.

**Q.** Which remaining target (mRNA or protein) (fraction of control) does the source give for ACCACAATAGGCAGCAAC here?
**A.** The remaining target (mRNA or protein) (fraction of control) was 0.69.

**Q.** How did the remaining target (mRNA or protein) (fraction of control) turn out when ACCTCTGGATGCCACTTG was run?
**A.** Its remaining target (mRNA or protein) (fraction of control) is 0.65.

**Q.** How did the remaining target (mRNA or protein) (fraction of control) turn out when ACGTTGGTCTGAGGGTAG was run?
**A.** The remaining target (mRNA or protein) (fraction of control) was 0.62.

**Q.** Which remaining target (mRNA or protein) (fraction of control) does the source give for AGCTGGATGAACTGGTCA here?
**A.** The remaining target (mRNA or protein) (fraction of control) was 0.77.

**Q.** Which remaining target (mRNA or protein) (fraction of control) does the source give for AGGGCAGTGGTGGCACAC here?
**A.** The remaining target (mRNA or protein) (fraction of control) was 0.85.

**Q.** How did the remaining target (mRNA or protein) (fraction of control) turn out when CAATGGAGAAACAGATGA was run?
**A.** Its remaining target (mRNA or protein) (fraction of control) is ≥ 1.

**Q.** For CAATTCCAAGAGCAGCGA, which remaining target (mRNA or protein) (fraction of control) is on record?
**A.** Its remaining target (mRNA or protein) (fraction of control) is 0.82.

**Q.** For CAGCAGGATGGGCACATC, which remaining target (mRNA or protein) (fraction of control) is on record?
**A.** The remaining target (mRNA or protein) (fraction of control) was 0.8.

**Q.** How did the remaining target (mRNA or protein) (fraction of control) turn out when CATAGGACGGCGGACTGG was run?
**A.** Its remaining target (mRNA or protein) (fraction of control) is 0.83.

**Q.** Which remaining target (mRNA or protein) (fraction of control) does the source give for CATTCGAGGTAGCGCACA here?
**A.** The remaining target (mRNA or protein) (fraction of control) was 0.61.

**Q.** CCACCACGCACTTGATGC was tested. Which remaining target (mRNA or protein) (fraction of control) did it give?
**A.** The remaining target (mRNA or protein) (fraction of control) was 0.86.

**Q.** How did the remaining target (mRNA or protein) (fraction of control) turn out when CCCTGCTGCGGTGTGATG was run?
**A.** Its remaining target (mRNA or protein) (fraction of control) is 0.56.

**Q.** How did the remaining target (mRNA or protein) (fraction of control) turn out when CGCACGTTCTCATAGGAC was run?
**A.** The remaining target (mRNA or protein) (fraction of control) was 0.76.

**Q.** How did the remaining target (mRNA or protein) (fraction of control) turn out when CGCGAGTGCCTGGCCCTG was run?
**A.** Its remaining target (mRNA or protein) (fraction of control) is 0.91.

**Q.** Which remaining target (mRNA or protein) (fraction of control) does the source give for GAACACTTCCTTGACACC here?
**A.** The remaining target (mRNA or protein) (fraction of control) was 0.69.

— the OligoGym collection
